Measured values reported in PMC10046369, “Low-Affinity/High-Selectivity Dopamine Transport Inhibition Sufficient to Rescue Cognitive Functions in the Aging Rat” (Biomolecules, 2023).

How the values were obtained:
Test in all cases: biochemical
Set-up in all cases: KINOMEscan competition binding panel, per cent of control
Conditions in all cases: read-out: %Ctrl @ 2800nM
[1] = molecular target: T1, ABL1(F317I)-nonphosphorylated (Homo sapiens, UniProt P00519, F317I)
T1 construct: nonphosphorylated
Outline: (§1)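 Values are expressed as percent of control, calculated as ((test − positive control)/(negative control − positive control)) × 100, so lower numbers mean stronger hits. Binding was measured by KINOMEscan competition assay in a 450-kinase human panel including disease mutants, using the contractor's validated protocol.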

ACVR1 = ACVR1 (Homo sapiens, UniProt Q04771)
Outline: as §1

ASK1 = molecular target: T2, ASK1 (Homo sapiens, UniProt Q99683)
T2 construct: gene MAP3K5
Outline: as §1

BRSK1 = BRSK1 (Homo sapiens, UniProt Q8TDC3)
Outline: as §1

BTK = BTK (Homo sapiens, UniProt Q06187)
Outline: as §1

CAMK1D = CAMK1D (Homo sapiens, UniProt Q8IU85)
Outline: as §1

CDC2L1 = molecular target: T3, CDC2L1 (Homo sapiens, UniProt P21127)
T3 construct: gene CDK11B
Outline: as §1

CSNK2A1 = CSNK2A1 (Homo sapiens, UniProt P68400)
Outline: as §1

DYRK2 = DYRK2 (Homo sapiens, UniProt Q92630)
Outline: as §1

EGFR(L747-T751del,Sins) = EGFR(L747-T751del,Sins) (Homo sapiens, UniProt P00533, DEL747-750/T751S)
Outline: as §1

EGFR(L858R,T790M) = EGFR(L858R,T790M) (Homo sapiens, UniProt P00533, L858R/T790M)
Outline: as §1

ERBB3 = ERBB3 (Homo sapiens, UniProt P21860)
Outline: as §1

FLT3(ITD,F691L) = FLT3(ITD,F691L) (Homo sapiens, UniProt P36888, F691L/ITD)
Outline: as §1

KIT(V559D,T670I) = KIT(V559D,T670I) (Homo sapiens, UniProt P10721, T670I/V559D)
Outline: as §1

MAP4K5 = MAP4K5 (Homo sapiens, UniProt Q9Y4K4)
Outline: as §1

MST1 = molecular target: T4, MST1 (Homo sapiens, UniProt Q13043)
T4 construct: gene STK4
Outline: as §1

MYLK = MYLK (Homo sapiens, UniProt Q15746)
Outline: as §1

NEK3 = NEK3 (Homo sapiens, UniProt P51956)
Outline: as §1

NIK = molecular target: T5, NIK (Homo sapiens, UniProt Q99558)
T5 construct: gene MAP3K14
Outline: as §1

PAK6 = PAK6 (Homo sapiens, UniProt Q9NQU5)
Outline: as §1

PIK3CA(H1047L) = PIK3CA(H1047L) (Homo sapiens, UniProt P42336, H1047L)
Outline: as §1

PIM1 = PIM1 (Homo sapiens, UniProt P11309)
Outline: as §1

PRKCH = PRKCH (Homo sapiens, UniProt P24723)
Outline: as §1

[2] = molecular target: T6, RPS6KA4(Kin.Dom.1-N-terminal) (Homo sapiens, UniProt O75676)
T6 construct: Kin.Dom.1-N-terminal
Outline: as §1

SRPK1 = SRPK1 (Homo sapiens, UniProt Q96SB4)
Outline: as §1

Sequence of MAP4K5 (Q9Y4K4 whole entry): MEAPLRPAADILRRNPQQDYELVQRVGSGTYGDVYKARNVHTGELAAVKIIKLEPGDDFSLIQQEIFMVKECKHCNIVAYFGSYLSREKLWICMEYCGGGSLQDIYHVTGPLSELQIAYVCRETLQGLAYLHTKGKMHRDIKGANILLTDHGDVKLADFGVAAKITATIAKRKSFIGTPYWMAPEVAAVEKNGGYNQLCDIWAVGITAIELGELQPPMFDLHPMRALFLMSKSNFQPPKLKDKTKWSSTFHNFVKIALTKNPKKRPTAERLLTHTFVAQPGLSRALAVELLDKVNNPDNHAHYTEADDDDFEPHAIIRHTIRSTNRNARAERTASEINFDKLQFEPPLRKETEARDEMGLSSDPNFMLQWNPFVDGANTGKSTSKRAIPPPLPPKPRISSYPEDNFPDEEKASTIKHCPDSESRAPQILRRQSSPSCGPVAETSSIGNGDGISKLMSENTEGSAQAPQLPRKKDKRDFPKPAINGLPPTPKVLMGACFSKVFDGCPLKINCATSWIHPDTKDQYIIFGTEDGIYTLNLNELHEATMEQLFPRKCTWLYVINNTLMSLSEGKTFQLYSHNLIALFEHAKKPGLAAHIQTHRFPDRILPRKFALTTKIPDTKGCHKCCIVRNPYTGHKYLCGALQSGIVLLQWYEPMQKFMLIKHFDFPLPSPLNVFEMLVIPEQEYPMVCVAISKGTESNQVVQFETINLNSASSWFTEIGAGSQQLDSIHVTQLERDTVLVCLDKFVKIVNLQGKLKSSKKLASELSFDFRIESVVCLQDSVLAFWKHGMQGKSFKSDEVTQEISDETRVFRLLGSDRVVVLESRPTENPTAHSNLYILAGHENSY
Sequence of CSNK2A1 (P68400 whole entry): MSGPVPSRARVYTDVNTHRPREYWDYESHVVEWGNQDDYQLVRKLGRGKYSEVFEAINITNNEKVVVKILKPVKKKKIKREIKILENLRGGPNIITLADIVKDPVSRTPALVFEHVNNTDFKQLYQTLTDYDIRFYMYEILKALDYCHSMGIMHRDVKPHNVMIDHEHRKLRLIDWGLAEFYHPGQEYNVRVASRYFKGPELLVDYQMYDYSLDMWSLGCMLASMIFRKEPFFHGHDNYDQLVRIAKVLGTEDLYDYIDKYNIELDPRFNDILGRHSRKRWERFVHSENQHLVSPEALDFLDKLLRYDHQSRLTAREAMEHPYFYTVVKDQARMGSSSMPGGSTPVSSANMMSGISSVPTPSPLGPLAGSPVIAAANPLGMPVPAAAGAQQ
Sequence of PAK6 (Q9NQU5 whole entry): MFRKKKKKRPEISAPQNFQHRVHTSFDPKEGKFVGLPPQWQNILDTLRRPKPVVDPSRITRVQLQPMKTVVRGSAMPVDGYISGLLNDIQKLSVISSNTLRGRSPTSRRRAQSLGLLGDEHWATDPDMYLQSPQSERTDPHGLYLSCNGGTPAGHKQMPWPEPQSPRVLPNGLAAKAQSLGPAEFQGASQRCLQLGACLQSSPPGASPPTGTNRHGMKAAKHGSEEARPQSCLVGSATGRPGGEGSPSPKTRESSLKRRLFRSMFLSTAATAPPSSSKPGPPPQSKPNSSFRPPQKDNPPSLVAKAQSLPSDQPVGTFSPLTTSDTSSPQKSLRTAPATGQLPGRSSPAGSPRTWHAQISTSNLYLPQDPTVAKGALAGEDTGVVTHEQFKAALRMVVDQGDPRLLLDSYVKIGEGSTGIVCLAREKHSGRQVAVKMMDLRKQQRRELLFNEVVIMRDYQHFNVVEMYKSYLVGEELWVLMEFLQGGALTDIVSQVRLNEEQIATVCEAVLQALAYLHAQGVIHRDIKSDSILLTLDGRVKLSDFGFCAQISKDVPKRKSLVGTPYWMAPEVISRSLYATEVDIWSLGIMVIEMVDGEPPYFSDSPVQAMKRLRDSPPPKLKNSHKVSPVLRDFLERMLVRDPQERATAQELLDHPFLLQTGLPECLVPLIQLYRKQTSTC
Sequence of BRSK1 (Q8TDC3 whole entry): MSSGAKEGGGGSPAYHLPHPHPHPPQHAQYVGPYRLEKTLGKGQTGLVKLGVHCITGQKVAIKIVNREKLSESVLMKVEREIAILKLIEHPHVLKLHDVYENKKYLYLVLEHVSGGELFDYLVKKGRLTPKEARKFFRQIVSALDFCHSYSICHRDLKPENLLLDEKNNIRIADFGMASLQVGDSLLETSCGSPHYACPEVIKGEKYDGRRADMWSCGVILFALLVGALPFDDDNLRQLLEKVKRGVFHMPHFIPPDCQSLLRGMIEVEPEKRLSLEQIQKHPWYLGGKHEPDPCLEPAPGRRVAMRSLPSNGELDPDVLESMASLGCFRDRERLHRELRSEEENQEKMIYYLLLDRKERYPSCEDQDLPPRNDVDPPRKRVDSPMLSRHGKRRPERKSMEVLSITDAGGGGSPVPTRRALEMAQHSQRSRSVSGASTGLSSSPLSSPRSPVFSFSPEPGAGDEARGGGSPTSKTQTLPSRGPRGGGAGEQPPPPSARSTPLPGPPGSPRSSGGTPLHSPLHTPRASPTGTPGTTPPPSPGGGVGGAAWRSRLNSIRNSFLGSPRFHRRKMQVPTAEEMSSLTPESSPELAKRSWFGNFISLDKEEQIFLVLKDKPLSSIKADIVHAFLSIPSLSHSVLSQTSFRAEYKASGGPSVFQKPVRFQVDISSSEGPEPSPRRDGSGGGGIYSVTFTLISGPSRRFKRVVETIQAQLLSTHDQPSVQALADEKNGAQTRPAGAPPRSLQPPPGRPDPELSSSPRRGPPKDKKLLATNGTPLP
Sequence of PIM1 (P11309 whole entry): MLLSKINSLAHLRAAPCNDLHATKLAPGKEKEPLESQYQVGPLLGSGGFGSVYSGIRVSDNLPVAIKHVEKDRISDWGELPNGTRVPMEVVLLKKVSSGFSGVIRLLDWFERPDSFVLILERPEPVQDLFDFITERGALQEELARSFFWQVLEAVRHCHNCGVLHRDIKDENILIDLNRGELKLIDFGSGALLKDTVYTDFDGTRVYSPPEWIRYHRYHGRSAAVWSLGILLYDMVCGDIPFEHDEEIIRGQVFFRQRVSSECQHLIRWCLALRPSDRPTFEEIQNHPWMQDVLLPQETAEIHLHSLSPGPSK
Sequence of ERBB3 (P21860 whole entry): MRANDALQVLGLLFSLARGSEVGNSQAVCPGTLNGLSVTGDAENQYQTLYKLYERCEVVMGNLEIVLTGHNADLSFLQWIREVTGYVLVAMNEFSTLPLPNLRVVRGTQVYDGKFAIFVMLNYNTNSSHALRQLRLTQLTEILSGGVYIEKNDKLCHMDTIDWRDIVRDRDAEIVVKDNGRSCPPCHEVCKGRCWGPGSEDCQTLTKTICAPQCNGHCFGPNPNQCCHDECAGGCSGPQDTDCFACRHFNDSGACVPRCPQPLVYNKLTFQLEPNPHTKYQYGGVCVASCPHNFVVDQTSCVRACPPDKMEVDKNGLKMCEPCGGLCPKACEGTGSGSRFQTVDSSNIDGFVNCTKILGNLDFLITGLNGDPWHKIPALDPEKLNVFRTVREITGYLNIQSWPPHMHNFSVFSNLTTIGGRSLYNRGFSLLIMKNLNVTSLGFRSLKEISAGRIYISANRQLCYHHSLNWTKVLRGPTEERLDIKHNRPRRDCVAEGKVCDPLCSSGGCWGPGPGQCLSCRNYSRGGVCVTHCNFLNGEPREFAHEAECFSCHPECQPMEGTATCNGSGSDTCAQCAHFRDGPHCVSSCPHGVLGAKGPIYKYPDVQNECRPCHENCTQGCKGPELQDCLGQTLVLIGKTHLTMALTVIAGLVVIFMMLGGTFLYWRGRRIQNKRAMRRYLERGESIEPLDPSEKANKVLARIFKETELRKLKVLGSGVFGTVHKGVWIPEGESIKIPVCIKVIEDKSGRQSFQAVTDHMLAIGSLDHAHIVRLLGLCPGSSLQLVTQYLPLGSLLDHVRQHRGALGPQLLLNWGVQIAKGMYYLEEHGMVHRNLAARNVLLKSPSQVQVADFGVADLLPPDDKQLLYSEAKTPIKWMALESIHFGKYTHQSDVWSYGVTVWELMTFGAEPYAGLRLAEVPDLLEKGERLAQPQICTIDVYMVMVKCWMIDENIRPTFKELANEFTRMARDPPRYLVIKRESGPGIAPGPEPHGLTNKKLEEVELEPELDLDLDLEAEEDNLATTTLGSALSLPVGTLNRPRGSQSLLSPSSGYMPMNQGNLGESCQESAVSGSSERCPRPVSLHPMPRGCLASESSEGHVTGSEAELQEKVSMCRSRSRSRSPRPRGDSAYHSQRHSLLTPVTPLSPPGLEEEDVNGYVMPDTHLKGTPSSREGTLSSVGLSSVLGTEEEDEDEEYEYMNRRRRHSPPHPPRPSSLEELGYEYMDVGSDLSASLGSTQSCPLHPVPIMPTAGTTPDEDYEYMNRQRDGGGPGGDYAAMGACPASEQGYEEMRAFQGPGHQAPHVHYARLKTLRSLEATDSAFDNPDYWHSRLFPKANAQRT
Sequence of PRKCH (P24723 whole entry): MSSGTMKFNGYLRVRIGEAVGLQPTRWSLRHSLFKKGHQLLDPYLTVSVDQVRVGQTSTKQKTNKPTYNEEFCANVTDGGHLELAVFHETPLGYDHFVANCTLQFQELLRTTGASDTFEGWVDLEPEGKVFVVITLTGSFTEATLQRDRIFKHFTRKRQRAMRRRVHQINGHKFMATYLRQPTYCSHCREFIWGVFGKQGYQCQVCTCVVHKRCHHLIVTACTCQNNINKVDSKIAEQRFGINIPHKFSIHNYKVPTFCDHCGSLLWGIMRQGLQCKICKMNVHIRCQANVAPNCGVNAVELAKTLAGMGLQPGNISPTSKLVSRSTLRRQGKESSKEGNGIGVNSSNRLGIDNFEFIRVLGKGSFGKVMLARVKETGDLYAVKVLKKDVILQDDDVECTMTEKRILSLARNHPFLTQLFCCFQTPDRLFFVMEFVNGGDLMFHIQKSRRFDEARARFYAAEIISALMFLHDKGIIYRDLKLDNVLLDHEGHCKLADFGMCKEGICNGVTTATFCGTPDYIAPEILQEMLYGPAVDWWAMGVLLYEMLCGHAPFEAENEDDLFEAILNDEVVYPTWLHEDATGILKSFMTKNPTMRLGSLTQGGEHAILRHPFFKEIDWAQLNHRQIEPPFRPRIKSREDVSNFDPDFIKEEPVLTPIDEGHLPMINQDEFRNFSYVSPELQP

SMILES: [O-][S@@+](Cc1cncs1)C(c1ccccc1)c1ccccc1 [S-CE-123, (S)-5-((Benzhydrylsulfinyl)Methyl)Thiazole]
- remaining binding at 2.8 µM [1]: 100%
- remaining binding at 2.8 µM (ACVR1): 99%
- remaining binding at 2.8 µM (ASK1): 84%
- remaining binding at 2.8 µM (BRSK1): 100%
- remaining binding at 2.8 µM (BTK): 100%
- remaining binding at 2.8 µM (CAMK1D): 96%
- remaining binding at 2.8 µM (CDC2L1): 95%
- remaining binding at 2.8 µM (CSNK2A1): 88%
- remaining binding at 2.8 µM (DYRK2): 86%
- remaining binding at 2.8 µM (EGFR(L747-T751del,Sins)): 57%
- remaining binding at 2.8 µM (EGFR(L858R,T790M)): 99%
- remaining binding at 2.8 µM (ERBB3): 89%
- remaining binding at 2.8 µM (FLT3(ITD,F691L)): 50%
- remaining binding at 2.8 µM (KIT(V559D,T670I)): 83%
- remaining binding at 2.8 µM (MAP4K5): 95%
- remaining binding at 2.8 µM (MST1): 97%
- remaining binding at 2.8 µM (MYLK): 96%
- remaining binding at 2.8 µM (NEK3): 100%
- remaining binding at 2.8 µM (NIK): 100%
- remaining binding at 2.8 µM (PAK6): 100%
- remaining binding at 2.8 µM (PIK3CA(H1047L)): 100%
- remaining binding at 2.8 µM (PIM1): 100%
- remaining binding at 2.8 µM (PRKCH): 100%
- remaining binding at 2.8 µM [2]: 100%
- remaining binding at 2.8 µM (SRPK1): 92%
